The record followed here is article PMC9682078, “Structural changes and molecular mechanism study on the inhibitory activity of epigallocatechin against α-glucosidase and α-amylase” (Frontiers in Nutrition, 2022).

A word on the IC50: it is the concentration at which inhibition is half-maximal. A high value points to weaker potency in that assay.

Structures are written as SMILES.

The experiment deals with T1, α-amylase (Sus scrofa, UniProt P00690).
T1 construct: gene AMY2
T1 sequence (P00690 16-511): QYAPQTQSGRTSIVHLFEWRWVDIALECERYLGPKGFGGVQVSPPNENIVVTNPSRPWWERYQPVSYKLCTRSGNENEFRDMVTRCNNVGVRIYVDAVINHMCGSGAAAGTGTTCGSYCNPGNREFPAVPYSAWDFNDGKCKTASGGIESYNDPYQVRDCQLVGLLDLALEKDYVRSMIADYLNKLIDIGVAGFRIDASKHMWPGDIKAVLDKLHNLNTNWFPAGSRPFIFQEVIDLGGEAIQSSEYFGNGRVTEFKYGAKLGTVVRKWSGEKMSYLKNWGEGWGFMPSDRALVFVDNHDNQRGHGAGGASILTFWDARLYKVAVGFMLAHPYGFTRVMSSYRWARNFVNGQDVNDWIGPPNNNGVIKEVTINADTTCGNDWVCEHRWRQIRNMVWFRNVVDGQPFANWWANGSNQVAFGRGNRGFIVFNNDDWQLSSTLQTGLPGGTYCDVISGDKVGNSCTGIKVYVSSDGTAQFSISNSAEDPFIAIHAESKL
Nature of the experiment: colorimetric DNS starch hydrolysis assay; Lineweaver-Burk kinetics; intrinsic fluorescence quenching. It is filed as biochemical.

As for `Oc1cc(O)c2c(c1)O[C@H](c1cc(O)c(O)c(O)c1)[C@H](O)C2` [EGC, epigallocatechin], the IC50 is 4.44 mM.
